Results taken from patent US20160263214A1, “CALCIUM FLUORIDE COMPOSITIONS” (GLAXOSMITHKLINE BIOLOGICALS S.A., priority 2013, published 2016).

Test: Composite organic content by thermogravimetry
Type: physicochemical
Conditions: for Weight losses Between 0 and 200° C. under N2 / Weight losses Between 200 et 600° C. under N2 / Weight losses Between 600 et 800° C. under Air: thermogravimetry, dry material; for Weight losses (single cell, temperature range not attributable): pure organic reference, one cell only
Protocol: Dry material sample were submitted to thermogravimetry. Weight losses from RT to 600° C. under N2 and from 600° C. to 800° C. under O2 were recorded and represent by difference the quantity of burned organic material.

| SMILES | Weight losses Between 0 and 200° C. under N2 | Weight losses Between 200 et 600° C. under N2 | Weight losses Between 600 et 800° C. under Air | Weight losses (single cell, temperature range not attributable) |
| --- | --- | --- | --- | --- |
| O=c1[nH]c(=O)c2[nH]c(=O)[nH]c2[nH]1 [Uric acid] | 0.1% | 74.6% | 25.3% | – |
| O=c1[nH]cnc2nc[nH]c12 [Hypoxanthine] | 0.2% | 50.6% | 49.2% | – |
| Cc1c[nH]c(=O)[nH]c1=O [Thymine] | – | – | – | 100% |
| O=C(O)CCCCC(=O)O [Adipic acid] | – | – | – | 100% |
